The record followed here is US11090304B2 (Amgen Inc., priority 2018, dated 2021).

The target of test [1] is GDP-bound KRAS protein (aa 1-169), containing both G12C and C118A amino acid substitutions (Homo sapiens, UniProt P01116, C118A/G12C). The experiment in a line: Coupled nucleotide exchange assay (SOS-mediated, AlphaScreen). The class given is biochemical. As to conditions: 5 min compound pre-incubation. On the technique in general: In Alpha technology, singlet oxygen from a donor bead excites a nearby acceptor bead.
GDP-bound KRAS protein (aa 1-169), containing both G12C and C118A amino acid substitutions, sequence (P01116 1-169 isoform P01116-2 G12C/C118A): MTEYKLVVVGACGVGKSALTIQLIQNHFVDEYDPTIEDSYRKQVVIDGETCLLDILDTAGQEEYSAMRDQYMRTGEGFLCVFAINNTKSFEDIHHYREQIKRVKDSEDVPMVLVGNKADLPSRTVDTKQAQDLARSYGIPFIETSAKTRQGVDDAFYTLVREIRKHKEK

The subject of test [2] is Phosphorylation of ERK1/2 in MIA PaCa-2 cells. The test is described as follows: Phospho-ERK1/2 MSD assay in MIA PaCa-2 cells. In kind it is cell-based. The following applies: read-out: p-ERK IC50 (2 h; MIA PaCa-2), 2 h compound treatment. The essentials: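 MSD electrochemiluminescence readout of phospho-ERK1/2 in whole-cell lysates, IC50 by 4-parameter logistic fit. Compound titrations were applied for 2 or 4 h at 37 °C, 5% CO2, followed by 10 ng/mL EGF stimulation for 10 min before lysis.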

Read-outs that look alike come from different tables or passages of the source.

One may read the IC50 as the concentration that inhibits the measured activity by half. As to `C=CC(=O)N1CCN(c2nc(=O)n(-c3c(F)cccc3C(C)C)c3nc(-c4ccccc4F)c(F)cc23)[C@@H](C)C1` (single isomer, unassigned) [Example 59-3-1], the “Coupled exchange IC50 (5 min)” value in test [1] is 0.128 | nda μM. Besides, the IC50 in test [2] (Homo sapiens, MIA PaCa-2, 2 h) is 343 nM.
As to `C=CC(=O)N1CCN(c2nc(=O)n(-c3c(C#N)cccc3C(C)C)c3nc(-c4ccccc4F)c(Cl)cc23)[C@@H](C)C1` (single isomer, unassigned) [Example 60-20-2], in test [1], the “Coupled exchange IC50 (5 min)” value was 0.024 | nda μM. For the same compound, the 50% inhibitory concentration (IC50) in test [2] (Homo sapiens, MIA PaCa-2, 2 h) was found to be 33 nM.
With `C=CC(=O)N1CCN(c2nc(=O)n(-c3c(C)ncnc3C3CC3)c3nc(-c4ccccc4F)c(Cl)cc23)[C@@H](C)C1` (single isomer, unassigned) [Example 60-30-2], in test [1], the “Coupled exchange IC50 (5 min)” value is 0.108 | nda μM. The half-inhibitory concentration (IC50) in test [2] (Homo sapiens, MIA PaCa-2, 2 h) was 81 nM.
For the compound `C=CC(=O)N1CCN(c2nc(=O)n(-c3c(C)cccc3C(C)C)c3nc(-c4c(O)cccc4F)c(F)cc23)C[C@H]1C` (single isomer, unassigned) [Example 63-2], the “Coupled exchange IC50 (5 min)” value in test [1] was 0.311 | nda μM. In addition, in test [2] (Homo sapiens, MIA PaCa-2, 2 h), the IC50 was found to be 609 nM.
For the compound `C=CC(=O)N1C[C@H](C)N(c2nc(=O)n(-c3c(C)cccc3C(C)C)c3nc(-c4c(O)cccc4F)c(F)cc23)[C@@H](C)C1` (single isomer, unassigned) [Example 63-3], the “Coupled exchange IC50 (5 min)” value in test [1] was 0.059 | nda μM. Also, in test [2] (Homo sapiens, MIA PaCa-2, 2 h), the concentration for half-maximal inhibition (IC50) worked out at 108 nM.
For `C=CC(=O)N1CCN(c2nc(=O)n(-c3c(C)cccc3C(C)C)c3nc(-c4cc(F)c(F)cc4O)c(Cl)cc23)[C@@H](C)C1` (single isomer, unassigned) [Example 64-2], the “Coupled exchange IC50 (5 min)” value in test [1] is listed as 0.151 | nda μM. Besides, the IC50 in test [2] (Homo sapiens, MIA PaCa-2, 2 h) came out at 258 nM.
For `C=CC(=O)N1CCN(c2nc(=O)n(-c3c(C)cccc3C(C)C)c3nc(-c4cccc(F)c4O)c(Cl)cc23)[C@@H](C)C1` (single isomer, unassigned) [Example 64-3] the same measures were 0.189 | nda μM and 219 nM.
Take `C=CC(=O)N1CCN(c2nc(=O)n(-c3c(C)cccc3C(C)C)c3nc(-c4c(O)cccc4Cl)c(F)cc23)[C@@H](C)C1` (single isomer, unassigned) [Example 68-1-1]: the “Coupled exchange IC50 (5 min)” value in test [1] is recorded as 0.084 | nda μM. In test [2], the IC50 is 128 nM.
For the compound `C=CC(=O)N1CCN(c2nc(=O)n(-c3c(C)cccc3C(C)C)c3nc(-c4c(O)cccc4Cl)c(F)cc23)[C@@H](C)C1` (single isomer, unassigned) [Example 68-1-2], in test [1], the “Coupled exchange IC50 (5 min)” value is 0.613 | nda μM. In test [2], the IC50 is 735 nM.
For the compound `C=CC(=O)N1CCN(c2nc(=O)n(-c3c(C)cccc3C(C)C)c3nc(-c4c(C)ccc5[nH]ncc45)c(F)cc23)[C@@H](C)C1` (single isomer, unassigned) [Example 68-2-2], the “Coupled exchange IC50 (5 min)” value in test [1] was 0.31 | nda μM. Further, in test [2] (Homo sapiens, MIA PaCa-2, 2 h), the 50% inhibitory concentration (IC50) is 607 nM.
For `C=CC(=O)N1CCN(c2nc(=O)n(-c3c(C)cccc3C(C)C)c3nc(-c4nc(N)ccc4Cl)c(F)cc23)[C@@H](C)C1` (single isomer, unassigned) [Example 71-1-1], in that order: 0.49 | nda μM and 725 nM.
Turning to `C=CC(=O)N1CCN(c2nc(=O)n(-c3ccccc3C(C)C)c3nc(-c4ccccc4F)c(C)cc23)[C@@H](C)C1` (single isomer, unassigned) [Example 74-1-2], the “Coupled exchange IC50 (5 min)” value in test [1] is reported as 0.118 | nda μM. Also, the IC50 in test [2] (Homo sapiens, MIA PaCa-2, 2 h) turned out to be 152 nM.
As for `C=CC(=O)N1CCN(c2nc(=O)n(-c3c(C)ccnc3C(C)C)c3nc(-c4ccccc4F)c(C)cc23)[C@@H](C)C1` (single isomer, unassigned) [Example 74-2-1], the “Coupled exchange IC50 (5 min)” value in test [1] is given as 0.26 | nda μM. The IC50 in test [2] was found to be 136 nM.
For `C=CC(=O)N1CCN(c2nc(=O)n(-c3c(C)ccnc3C(C)C)c3nc(-c4ccccc4F)c(C)cc23)[C@@H](C)C1` (single isomer, unassigned) [Example 74-2-2], in that order: 2.325 | nda μM and 1040 nM.
Regarding `C=CC(=O)N1CCN(c2nc(=O)n(-c3c(C)ccnc3C(C)C)c3nc(-c4c(O)cccc4F)c(C)cc23)[C@@H](C)C1` (single isomer, unassigned) [Example 74-3-1], the “Coupled exchange IC50 (5 min)” value in test [1] is 0.05 | nda μM. The IC50 in test [2] (Homo sapiens, MIA PaCa-2, 2 h) was found to be 103 nM.
For `C=CC(=O)N1CCN(c2nc(=O)n(-c3c(C)ccnc3C(C)C)c3nc(-c4c(O)cccc4F)c(F)cc23)C[C@H]1C` (single isomer, unassigned) [Example 75-2], in that order: 0.493 | nda μM and 306 nM.
Take `C=CC(=O)N1CCN(c2nc(=O)n(-c3c(C)ccnc3C(C)C)c3nc(-c4c(O)cccc4F)c(F)cc23)CC1` (single isomer, unassigned) [Example 75-4, (M)-6-fluoro-7-(2-fluoro-6-hydroxyphenyl)-1-(4-methyl-2-(2-propanyl)-3-pyridinyl)-4-(4-(2-propenoyl)-1-piperazinyl)pyrido[2,3-d]pyrimidin-2(1H)-one]: in test [1], the “Coupled exchange IC50 (5 min)” value was 0.552 | nda μM. The concentration for half-maximal inhibition (IC50) in test [2] (Homo sapiens, MIA PaCa-2, 2 h) stood at 543 nM.
For the compound `C=CC(=O)N1C[C@@H](C)N(c2nc(=O)n(-c3c(C)ccnc3C(C)C)c3nc(-c4c(N)cccc4F)c(F)cc23)[C@@H](C)C1` (single isomer, unassigned) [Example 75-8], the “Coupled exchange IC50 (5 min)” value in test [1] is recorded as 0.023 | nda μM. In addition, the concentration for half-maximal inhibition (IC50) in test [2] (Homo sapiens, MIA PaCa-2, 2 h) was 38 nM.
Turning to `C=CC(=O)N1CCN(c2nc(=O)n(-c3c(C)ccnc3C(C)C)c3nc(-c4c(O)cccc4F)c(F)cc23)[C@@H](C(F)F)C1` (single isomer, unassigned) [Example 75-9-2, (M)-4-((2S or 2R)-2-(difluoromethyl)-4-(2-propenoyl)-1-piperazinyl)-6-fluoro-7-(2-fluoro-6-hydroxyphenyl)-1-(4-methyl-2-(2-propanyl)-3-pyridinyl)pyrido[2,3-d]pyrimidin-2(1H)-one], in test [1], the “Coupled exchange IC50 (5 min)” value is 0.136 | nda μM. For the same compound, the 50% inhibitory concentration (IC50) in test [2] (Homo sapiens) amounted to 113 nM.
On to `C=CC(=O)N1[C@@H]2CCC[C@H]1CN(c1nc(=O)n(-c3c(C)ccnc3C(C)C)c3nc(-c4ccccc4F)c(Cl)cc13)C2` (single isomer, unassigned) [Example 78-2, (M)-6-chloro-7-(2-fluorophenyl)-1-(4-methyl-2-(2-propanyl)-3-pyridinyl)-4-(9-(2-propenoyl)-3,9-diazabicyclo[3.3.1]nonan-3-yl)pyrido[2,3-d]pyrimidin-2(1H)-one], for which the “Coupled exchange IC50 (5 min)” value in test [1] was 0.436 | nda μM. In addition, the 50% inhibitory concentration (IC50) in test [2] (Homo sapiens, MIA PaCa-2, 2 h) was determined as 376 nM.
Regarding `C=CC(=O)N1CCN(c2nc(=O)n(-c3c(C)ccnc3C(C)C)c3nc(-c4ccccc4F)c(Cl)cc23)[C@@H](C(F)F)C1` (single isomer, unassigned) [Example 78-3-2], in test [1], the “Coupled exchange IC50 (5 min)” value was 0.094 | nda μM. For the same compound, the IC50 in test [2] (Homo sapiens, MIA PaCa-2, 2 h) worked out at 80 nM.
For `C=CC(=O)N1CCN(c2nc(=O)n(-c3c(C)ccnc3C(C)C)c3nc(-c4ccccc4F)c(Cl)cc23)[C@H](C(F)F)C1` (single isomer, unassigned) [Example 78-3], in that order: 0.141 | nda μM and 246 nM.
With `C=CC(=O)N1CCN(c2nc(=O)n(-c3c(C)ccnc3C(C)C)c3nc(-c4ccccc4F)c(Cl)cc23)C(CF)C1` (single isomer, unassigned) [Example 78-5, (M)-6-chloro-4-(2-(fluoromethyl)-4-(2-propenoyl)-1-piperazinyl)-7-(2-fluorophenyl)-1-(4-methyl-2-(2-propanyl)-3-pyridinyl)pyrido[2,3-d]pyrimidin-2(1H)-one], the “Coupled exchange IC50 (5 min)” value in test [1] is listed as 0.349 | nda μM. The half-inhibitory concentration (IC50) in test [2] (Homo sapiens, MIA PaCa-2, 2 h) stood at 2610 nM.
For `C=CC(=O)N1C[C@@H](C)N(c2nc(=O)n(-c3c(C)ccnc3C(C)C)c3nc(-c4ccccc4F)c(Cl)cc23)[C@@H](C)C1` (single isomer, unassigned) [Example 78-7, (M)-6-chloro-4-(cis-2,6-dimethyl-4-(2-propenoyl)-1-piperazinyl)-7-(2-fluorophenyl)-1-(4-methyl-2-(2-propanyl)-3-pyridinyl)pyrido[2,3-d]pyrimidin-2(1H)-one], in that order: 0.034 | nda μM and 23 nM.
For the compound `C=CC(=O)N1C[C@H](C)N(c2nc(=O)n(-c3c(C)ccnc3C(C)C)c3nc(-c4ccccc4F)c(Cl)cc23)[C@@H](C)C1` (single isomer, unassigned) [Example 78-8], the “Coupled exchange IC50 (5 min)” value in test [1] is reported as 0.026 | nda μM. Besides, in test [2] (Homo sapiens, MIA PaCa-2, 2 h), the IC50 came to 10 nM.
As to `C=CC(=O)N1CCN(c2nc(=O)n(-c3c(C)ccnc3C(C)C)c3nc(-c4ccccc4F)c(Cl)cc23)C(C(F)(F)F)C1` (single isomer, unassigned) [Example 78-9, (M)-6-chloro-7-(2-fluorophenyl)-1-(4-methyl-2-(2-propanyl)-3-pyridinyl)-4-(4-(2-propenoyl)-2-(trifluoromethyl)-1-piperazinyl)pyrido[2,3-d]pyrimidin-2(1H)-one], the “Coupled exchange IC50 (5 min)” value in test [1] was 0.515 | nda μM. In addition, the IC50 in test [2] (Homo sapiens, MIA PaCa-2, 2 h) came out at 348 nM.
For `C=CC(=O)N1CCN(c2nc(=O)n(-c3c(C)ccnc3C(C)C)c3nc(-c4ccccc4F)c(Cl)cc23)[C@@H](CO)C1` (single isomer, unassigned) [Example 78-14] the same measures were 0.133 | nda μM and 81 nM.
`C=CC(=O)N1CCN(c2nc(=O)n(-c3c(C)ccnc3C(C)C)c3nc(-c4ccccc4F)c(Cl)cc23)CC1` (single isomer, unassigned) [Example 78-15, (M)-6-chloro-7-(2-fluorophenyl)-1-(4-methyl-2-(2-propanyl)-3-pyridinyl)-4-(4-(2-propenoyl)-1-piperazinyl)pyrido[2,3-d]pyrimidin-2(1H)-one]: the “Coupled exchange IC50 (5 min)” value in test [1] is recorded as 0.124 | nda μM. Further, the IC50 in test [2] (Homo sapiens, MIA PaCa-2, 2 h) was 61 nM.
